From patent US20080063628A1, “METHODS TO PROMOTE CELL DIFFERENTIATION” (priority 2006, published 2008)

Columns and labels:
Assay in all cases: 6 hour trichostatin A treatment, gene expression by RT-PCR (Example 10)
Type in all cases: cell-based, human
[1] = test system: amniotic fluid-derived cell line; conditions: for Gata1 gene expression / HNF-3 beta gene expression / Insulin gene expression / Pdx-1 gene expression / sox17 gene expression: 1.25 μM for 6 h then removed
Experimental: (§1) Amniotic fluid derived cells or pancreas-derived cells were seeded into 24-well tissue culture plates at a density of 5000/cm^2 and cultured in AMNIOMAX (Invitrogen) or DMEM with 10% FBS respectively under standard cell culture conditions until confluency was reached. Upon reaching confluency, amniotic fluid derived cells were treated with 1.25 μM trichostatin A and pancreas-derived stromal cells were treated with 5.0 μM trichostatin A. The media was changed 6 hours following the addition of trichostatin A and cultures were maintained for the remainder of the experiment. Several cell lines obtained from amniotic fluid (see Example 14) and pancreas (see Example 13) were tested.
(§2) RNA samples were obtained at the time the trichostatin A was removed and 24 hours from the start of the experiment. The culture media was removed and cells were washed with PBS then collected in RLT Lysis Buffer with β-mercaptoethanol (Qiagen). RNA was purified using the RNeasy Mini Kit (Qiagen) and RNA quantity and quality was determined using a spectrophotometer. cDNA was made using the iScript cDNA synthesis kit (BioRad). Human pancreas cDNA was included as a control. Results were normalized against GAPDH expression levels.
(§3) The expression levels of Sox17, HNF-3 beta, Pdx-1, Insulin, and Gata-1 were analyzed in amniotic-derived cells while the expression levels of glucagon, insulin, PDX-1 and HNF-3 beta were analyzed in pancreas-derived cells. 20 ng of cDNA was used in each RT-PCR reaction, which was performed on the Applied Biosystems 7500, according to the methods described in Example 15. Data was analyzed using the accompanying software.
(§4) Real-time PCR amplifcation and quantitative analysis. Unless otherwise stated, all reagents were purchased from Applied Biosystems. Real-time PCR reactions were performed using the ABI PRISM™ 7500 Sequence Detection System. TAQMAN™ FAST UNIVERSAL PCR MASTER MIX™ (ABI, CA) was used with 20 ng of reverse transcribed RNA in a total reaction volume of 20 μl. Each cDNA sample was run in duplicate to allow correction of pipetting errors. Primers and FAM-labeled TAQMAN™ probes were used at concentrations of 200 nM. The level of expression for each target gene was normalized using the pre-developed Applied Biosystem's human glyceraldehyde-3-phosphate dehydrogenase (GAPDH) endogenous control kit. Primers and probes were designed using either ABI PRISM PRIMER EXPRESS™ software or a pre-developed ABI gene analysis kit. For each gene, either one of the primers or the probe were designed to be exon-boundary spanning. This eliminated the possibility of the primers/probe binding to any genomic DNA present. The primer and probe sets are listed as follows: Pdx-1 (Hs00426216), Insulin (Hs00355773), glucagon (Hs00174967), and FoxA2 (HNF 3-beta) (Hs00232764). The remaining primers were designed using the PRIMERS program (ABI, CA). After an initial 95° C. incubation for 20 sec, samples were cycled 40 times in two stages: a denaturation step at 95° C. for 3 sec, followed by an annealing/extension step at 60° C. for 30 sec.
(§5) For each primer/probe set, a cycle time value was determined as the cycle number at which the fluorescence intensity of the PCR reaction reached a specific value in the middle of the exponential region of amplification. An increase in expression of a gene corresponded to a decrease in the number of cycles required for the fluorescence intensity to reach this value.

[2] = test system: late passage (P11) pancreatic-derived stromal cell line; conditions: for HNF-3 beta gene expression / Insulin gene expression / Pdx-1 gene expression / glucagon gene expression: 5 μM for 6 h then removed
Experimental: as §1, §2, §3, §4, §5

[3] = test system: second amniotic fluid-derived cell line; conditions: for Gata1 gene expression / HNF-3 beta gene expression / Insulin gene expression / Pdx-1 gene expression / sox17 gene expression: 1.25 μM for 6 h then removed
Experimental: as §1, §2, §3, §4, §5

[4] = 5.0 μM, following 6 h treatment

In the case of `CC(/C=C/C(=O)NO)=C\[C@@H](C)C(=O)c1ccc(N(C)C)cc1` [trichostatin A], the Gata1 gene expression ([1]; 6 hrs) is reported as “nd (not detectable at >40 cycles by RT-PCR)”, the “HNF-3 beta gene expression” value ([1]; 6 hrs) is reported as “+++ (detectable at less than 35 cycles by RT-PCR with SE less than 0.9)” and the Insulin gene expression ([1]; 6 hrs) is reported as “nd (not detectable at >40 cycles by RT-PCR)”. The Pdx-1 gene expression ([1]; 6 hrs) was “+ (detectable between 35 and 40 cycles by RT-PCR)”, the sox17 gene expression ([1]; 6 hrs) was “+++ (detectable at less than 35 cycles by RT-PCR with SE less than 0.9)” and the Gata1 gene expression ([1]; 24 hrs) was “nd (not detectable at >40 cycles by RT-PCR)”. For the same compound, the “HNF-3 beta gene expression” value ([1]; 24 hrs) was “+++ (detectable at less than 35 cycles by RT-PCR with SE less than 0.9)”, the Insulin gene expression ([1]; 24 hrs) was “nd (not detectable at >40 cycles by RT-PCR)” and the Pdx-1 gene expression ([1]; 24 hrs) was “nd (not detectable at >40 cycles by RT-PCR)”. The sox17 gene expression ([1]; 24 hrs) was “+++ (detectable at less than 35 cycles by RT-PCR with SE less than 0.9)”, the “Pdx-1 RT-PCR detection cycle” value ([1]; 1.25 μM, after treatment (37 before treatment)) was 35 cycles and the “HNF-3 beta RT-PCR detection cycle” value ([1]; 1.25 μM, following 6 h treatment) was 32 cycles. The “HNF-3 beta RT-PCR detection cycle” value ([1]; 1.25 μM, following the wash) was 35 cycles, the “HNF-3 beta gene expression” value ([2]; 6 hrs) was “+ (detectable between 35 and 40 cycles by RT-PCR)” and the Insulin gene expression ([2]; 6 hrs) was “nd (not detectable at >40 cycles by RT-PCR)”. For the same compound, the Pdx-1 gene expression ([2]; 6 hrs) was “+ (detectable between 35 and 40 cycles by RT-PCR)”, the glucagon gene expression ([2]; 6 hrs) was “+ (detectable between 35 and 40 cycles by RT-PCR)” and the “HNF-3 beta gene expression” value ([2]; 24 hrs) was “nd (not detectable at >40 cycles by RT-PCR)”. The Insulin gene expression ([2]; 24 hrs) was “nd (not detectable at >40 cycles by RT-PCR)”, the Pdx-1 gene expression ([2]; 24 hrs) was “nd (not detectable at >40 cycles by RT-PCR)” and the glucagon gene expression ([2]; 24 hrs) was “+ (detectable between 35 and 40 cycles by RT-PCR)”. For the same compound, the “HNF-3 beta RT-PCR detection cycle” value [2, 4] was 36 cycles, the “Pdx-1 RT-PCR detection cycle” value [2, 4] was 37 cycles and the “glucagon RT-PCR detection cycle” value [2, 4] was 37 cycles. For the same compound, the “glucagon RT-PCR detection cycle” value ([2]; 5.0 μM, following the removal) was 35 cycles, the Gata1 gene expression ([3]; 6 hrs) was “nd (not detectable at >40 cycles by RT-PCR)” and the “HNF-3 beta gene expression” value ([3]; 6 hrs) was “+++ (detectable at less than 35 cycles by RT-PCR with SE less than 0.9)”. For the same compound, the Insulin gene expression ([3]; 6 hrs) was “nd (not detectable at >40 cycles by RT-PCR)”, the Pdx-1 gene expression ([3]; 6 hrs) was “+++ (detectable at less than 35 cycles by RT-PCR with SE less than 0.9)” and the sox17 gene expression ([3]; 6 hrs) was “+++ (detectable at less than 35 cycles by RT-PCR with SE less than 0.9)”. The Gata1 gene expression ([3]; 24 hrs) was “nd (not detectable at >40 cycles by RT-PCR)”, the “HNF-3 beta gene expression” value ([3]; 24 hrs) was “+ (detectable between 35 and 40 cycles by RT-PCR)” and the Insulin gene expression ([3]; 24 hrs) was “nd (not detectable at >40 cycles by RT-PCR)”. The Pdx-1 gene expression ([3]; 24 hrs) was “nd (not detectable at >40 cycles by RT-PCR)”, the sox17 gene expression ([3]; 24 hrs) was “+++ (detectable at less than 35 cycles by RT-PCR with SE less than 0.9)” and the “HNF-3 beta RT-PCR detection cycle” value ([3]; 1.25 μM, 6 hours of treatment) was 31 cycles. For the same compound, the “Pdx-1 RT-PCR detection cycle” value ([3]; 1.25 μM, 6 hours of treatment) was 35 cycles and the “HNF-3 beta RT-PCR detection cycle” value ([3]; 1.25 μM, following removal) was 35 cycles.
